For 15 compounds, IC50 results are on record in patent publication US8933103B2, “Pyridone derivatives” (Daiichi Sankyo Company, Limited, priority 2012, dated 2015).

The target of assay [1] is T1, phosphorylated Axl (pAxl Y702) in NCI-H1299 cells (Homo sapiens, UniProt P30530).
T1 construct: endogenous in cells; host or cells: NCI-H1299
T1 sequence (P30530 26-894): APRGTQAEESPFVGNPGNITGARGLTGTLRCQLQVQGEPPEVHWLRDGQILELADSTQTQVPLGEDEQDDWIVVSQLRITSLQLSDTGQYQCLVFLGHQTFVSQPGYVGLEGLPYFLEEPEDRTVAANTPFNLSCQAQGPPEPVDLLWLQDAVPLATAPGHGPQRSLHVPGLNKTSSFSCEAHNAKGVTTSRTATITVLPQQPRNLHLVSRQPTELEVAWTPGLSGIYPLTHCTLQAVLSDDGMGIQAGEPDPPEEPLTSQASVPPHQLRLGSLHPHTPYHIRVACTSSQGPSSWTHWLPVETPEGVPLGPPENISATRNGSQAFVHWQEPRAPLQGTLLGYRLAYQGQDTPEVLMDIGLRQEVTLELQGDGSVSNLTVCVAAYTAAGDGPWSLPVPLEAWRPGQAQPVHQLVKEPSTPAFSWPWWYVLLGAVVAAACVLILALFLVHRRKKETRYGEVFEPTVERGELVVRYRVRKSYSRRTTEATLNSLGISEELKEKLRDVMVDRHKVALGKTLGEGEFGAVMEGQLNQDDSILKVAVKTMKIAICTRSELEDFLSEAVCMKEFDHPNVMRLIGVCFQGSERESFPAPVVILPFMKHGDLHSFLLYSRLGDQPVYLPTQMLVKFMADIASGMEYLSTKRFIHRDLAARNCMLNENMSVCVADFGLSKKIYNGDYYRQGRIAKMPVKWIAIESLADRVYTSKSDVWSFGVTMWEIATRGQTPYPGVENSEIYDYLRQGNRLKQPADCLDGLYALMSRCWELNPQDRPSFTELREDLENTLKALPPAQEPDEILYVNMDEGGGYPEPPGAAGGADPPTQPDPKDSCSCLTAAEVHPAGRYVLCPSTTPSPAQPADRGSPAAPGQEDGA
The assay can be described thus: Intracellular Axl Phosphorylation Inhibitory Activity (pAxl, NCI-H1299 cells). To be noted: 1 h compound incubation, GAS6 stimulation 10 minutes, pAxl (Y702) level. The class given is cell-based. As to the method:
A phosphorylated Axl (hereinafter pAxl) inhibitory test was performed using the human non-small-cell lung cancer-derived cell strain NCI-H1299.
On the following day, the medium was removed, 100 μl of fresh medium were added, and the cells were cultured at 37° C. in the presence of 5% CO2 for one day.
The test compound was dissolved in DMSO and diluted with medium to prepare a sample solution (DMSO concentration: 2%). Twenty-five microliters of medium or sample-added medium was added to each well (DMSO concentration: 0.4%), and the plate was incubated at 37° C. in the presence of 5% CO2 for one hour.
After stirring, the plate was incubated at 37° C. in the presence of 5% CO2 for 10 minutes.
The supernatant was discarded, and 0.1 ml of a 37% formalin solution diluted to 4% with phosphate buffer (PBS) (hereinafter “4% formalin solution”) was added to each well. The plate was allowed to stand at room temperature for 10 minutes.
Next, the 4% formalin solution was discarded, and 0.2 ml of a solution of Triton X-100 diluted to 0.1% with PBS (hereinafter “wash buffer”) was added. The wash buffer was discarded using a decanter, and excess moisture in the plate was removed on a paper towel.
Subsequently, […] NaN3 and H2O2 were added to the wash buffer at 0.1% (hereinafter “quenching buffer”), and 0.1 ml of the quenching buffer was added to each well. The plate was allowed to stand at room temperature for 15 minutes.
The quenching buffer was discarded, and 0.2 ml of wash buffer was added. The wash buffer was discarded using a decanter, and excess moisture in the plate was removed on a paper towel.
Skim milk (Nacalai Tesque) was added to the wash buffer at a final concentration of 5% (hereinafter “blocking buffer”), and 0.25 ml of the blocking buffer was added to each well. The plate was allowed to stand at room temperature for one hour.
After light stirring, the plate was incubated for 20 minutes. Luminescence was then measured by ARVO sx (PerkinElmer), and the pAxl (Y702) level was measured.
pAxl Inhibitory activity was determined by the following formula. Inhibition %=100−(A−B)×100/(T−B)
A: Measurement of the test compound
T: Luminescence value of the reaction solution with a compound not added

In assay [2] the target is T2, AXL (fusion protein of amino acids 464-885 of the intracellular domain of human AXL with glutathione transferase) (Homo sapiens, UniProt P30530).
T2 sequence (P30530 464-885 isoform P30530-2): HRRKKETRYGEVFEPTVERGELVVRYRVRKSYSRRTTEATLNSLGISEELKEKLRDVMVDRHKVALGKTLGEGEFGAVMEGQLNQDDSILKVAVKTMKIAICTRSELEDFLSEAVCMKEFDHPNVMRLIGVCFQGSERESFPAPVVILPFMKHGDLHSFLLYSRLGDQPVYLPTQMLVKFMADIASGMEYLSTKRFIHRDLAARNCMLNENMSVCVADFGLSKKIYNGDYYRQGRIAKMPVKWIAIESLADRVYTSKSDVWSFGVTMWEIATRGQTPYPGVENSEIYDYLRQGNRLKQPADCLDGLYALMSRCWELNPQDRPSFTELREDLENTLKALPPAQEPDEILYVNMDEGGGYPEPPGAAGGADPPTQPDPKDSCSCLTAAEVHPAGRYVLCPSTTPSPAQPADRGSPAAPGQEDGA
The experiment in a line: Cell-Free Axl Kinase Inhibitory Activity.

Structures are written as SMILES.

What is called IC50 is the concentration that gives 50% inhibition. Regarding `CN1CC=C(c2cnc(N)c(-c3ccc(NC(=O)c4cn(CC(F)(F)F)cc(-c5ccc(F)cc5)c4=O)cc3)c2)CC1` [Example 79, N-[4-(6-Amino-1′-methyl-1′,2′,3′,6′-tetrahydro-3,4′-bipyridin-5-yl)phenyl]-5-(4-fluorophenyl)-4-oxo-1-(2,2,2-trifluoroethyl)-1,4-dihydropyridine-3-carboxamide], the IC50 in assay [1] lay in the range of 50 to 100 nM; in assay [2], 1 to 10 nM.

On to `COc1ccc(-c2cnc(N)c(-c3ccc(NC(=O)c4cn(CC(F)(F)F)cc(-c5ccc(F)c(Br)c5)c4=O)cc3)c2)cc1OC` [Example 89, N-{4-[2-Amino-5-(3,4-dimethoxyphenyl)pyridin-3-yl]phenyl}-5-(4-fluoro-3-bromophenyl)-4-oxo-1-(2,2,2-trifluoroethyl)-1,4-dihydropyridine-3-carboxamide], for which the IC50 lay in the range of 50 to 100 nM in assay [1] and 1 to 10 nM in assay [2].

As to `COc1ccc(-c2cnc(N)c(-c3ccc(NC(=O)c4c[nH]cc(-c5ccc(F)cc5)c4=O)cc3)c2)cc1OC` [Example 1, N-{4-[2-Amino-5-(3,4-dimethoxyphenyl)pyridin-3-yl]phenyl}-5-(4-fluorophenyl)-4-oxo-1,4-dihydropyridine-3-carboxamide], the values for the IC50 in assay [1] and in assay [2] were 50 to 100 nM and 1 to 10 nM, respectively.

On to `CC(=O)N1C2C=C(c3cnc(N)c(-c4ccc(NC(=O)c5cn(CCF)cc(-c6ccc(F)cc6)c5=O)cc4)c3)CC1CC2` (stereo not drawn) [Example 81, N-{4-[5-(8-Acetyl-8-azabicyclo[3.2.1]oct-2-en-3-yl)-2-aminopyridin-3-yl]phenyl}-1-(2-fluoroethyl)-5-(4-fluorophenyl)-4-oxo-1,4-dihydropyridine-3-carboxamide], for which the 50% inhibitory concentration (IC50) is 100 to 500 nM in assay [1] and 23 nM in assay [2].

Consider `Nc1ncc(-c2cccc(Cl)c2)cc1-c1ccc(NC(=O)c2cn(CC(F)(F)F)cc(-c3ccc(F)cc3)c2=O)cc1` [Example 36, N-{4-[2-Amino-5-(3-chlorophenyl)pyridin-3-yl]phenyl}-5-(4-fluorophenyl)-4-oxo-1-(2,2,2-trifluoroethyl)-1,4-dihydropyridine-3-carboxamide], for which the IC50 in assay [1] lay in the range of 100 to 500 nM; in assay [2], 10 to 20 nM.

As to `CC(C)(O)Cn1cc(C(=O)Nc2ccc(-c3cc(-c4cnn(C[C@H]5COCCO5)c4)cnc3N)cc2)c(=O)c(-c2ccc(F)cc2)c1` [Example 68, N-[4-(2-Amino-5-{1-[(2S)-1,4-dioxan-2-ylmethyl]-1H-pyrazol-4-yl}pyridin-3-yl)phenyl]-5-(4-fluorophenyl)-1-(2-hydroxy-2-methylpropyl)-4-oxo-1,4-dihydropyridine-3-carboxamide], the figures for the IC50 in assay [1] and in assay [2] were 100 to 500 nM and 10 to 20 nM, respectively.

For the compound `COC1CN(C(=O)c2cn(Cc3ccc(F)cc3)cc(C(=O)Nc3ccc(-c4cc(-c5cnn(C[C@H]6COCCO6)c5)cnc4N)cc3)c2=O)C1` [Example 72, N-[4-(2-Amino-5-{1-[(2S)-1,4-dioxan-2-ylmethyl]-1H-pyrazol-4-yl}pyridin-3-yl)phenyl]-1-(4-fluorobenzyl)-5-[(3-methoxyazetidin-1-yl)carbonyl]-4-oxo-1,4-dihydropyridine-3-carboxamide], the results for the IC50 in assay [1] and in assay [2] were 50 to 100 nM and 1 to 10 nM, respectively.

In the case of `COc1ccc(-c2cnc(N)c(-c3ccc(NC(=O)c4cn(CCO)cc(-c5ccc(F)cc5)c4=O)cc3)c2)cc1OC` [Example 7, N-{4-[2-Amino-5-(3,4-dimethoxyphenyl)pyridin-3-yl]phenyl}-5-(4-fluorophenyl)-1-(2-hydroxyethyl)-4-oxo-1,4-dihydropyridine-3-carboxamide], the IC50 lay in the range of 50 to 100 nM in assay [1] and 1 to 10 nM in assay [2].

As to `CCn1cc(C(=O)Nc2ccc(-c3cc(-c4ccc(OC)c(OC)c4)cnc3N)cc2)c(=O)c(-c2ccccc2)c1` [Example 18, N-{4-[2-Amino-5-(3,4-dimethoxyphenyl)pyridin-3-yl]phenyl}-1-ethyl-4-oxo-5-phenyl-1,4-dihydropyridine-3-carboxamide], the IC50 was in the range of 50 to 100 nM in assay [1] and 1 to 10 nM in assay [2].

As to `CCN(CC)CCn1cc(C(=O)Nc2ccc(-c3cc(-c4cnn(C[C@H]5COCCO5)c4)cnc3N)cc2)c(=O)c(-c2ccc(F)cc2)c1` [Example 69, N-[4-(2-Amino-5-{1-[(2S)-1,4-dioxan-2-ylmethyl]-1H-pyrazol-4-yl}pyridin-3-yl)phenyl]-1-[2-(diethylamino)ethyl]-5-(4-fluorophenyl)-4-oxo-1,4-dihydropyridine-3-carboxamide], the IC50 in assay [1] lay within 100 to 500 nM; in assay [2], 1 to 10 nM.

On to `COc1ccc(-c2cnc(N)c(-c3ccc(NC(=O)c4cn(CC(F)(F)F)cc(-c5cccc(F)c5)c4=O)cc3)c2)cc1OC` [Example 22, N-{4-[2-Amino-5-(3,4-dimethoxyphenyl)pyridin-3-yl]phenyl}-5-(3-fluorophenyl)-4-oxo-1-(2,2,2-trifluoroethyl)-1,4-dihydropyridine-3-carboxamide], for which the half-inhibitory concentration (IC50) was 50 to 100 nM in assay [1] and 1 to 10 nM in assay [2].

With `Nc1ncc(-c2ccccc2)cc1-c1ccc(NC(=O)c2cn(CC(F)(F)F)cc(-c3ccc(F)cc3)c2=O)cc1` [Example 31, N-[4-(2-Amino-5-phenylpyridin-3-yl)phenyl]-5-(4-fluorophenyl)-4-oxo-1-(2,2,2-trifluoroethyl)-1,4-dihydropyridine-3-carboxamide], the IC50 in assay [1] is 100 to 500 nM; in assay [2], 1 to 10 nM.

As to `COc1ccc(-c2cnc(N)c(-c3ccc(NC(=O)c4cn(CC(F)(F)F)cc(-c5ccc(F)cc5)c4=O)cc3C)c2)cc1OC` [Example 30, N-{4-[2-Amino-5-(3,4-dimethoxyphenyl)pyridin-3-yl]-3-methylphenyl}-5-(4-fluorophenyl)-4-oxo-1-(2,2,2-trifluoroethyl)-1,4-dihydropyridine-3-carboxamide], the IC50 in assay [1] was in the range of 50 to 100 nM; in assay [2], 1 to 10 nM.

Take `COc1ccc(-c2cnc(N)c(-c3ccc(NC(=O)c4cn(CC(F)(F)F)cc(-c5ccc(F)cc5)c4=O)cc3)c2)cc1` [Example 32, N-{4-[2-Amino-5-(4-methoxyphenyl)pyridin-3-yl]phenyl}-5-(4-fluorophenyl)-4-oxo-1-(2,2,2-trifluoroethyl)-1,4-dihydropyridine-3-carboxamide]: the results for the IC50 in assay [1] and in assay [2] were 100 to 500 nM and 10 to 20 nM, respectively.

As to `Cc1ccc(-c2cnc(N)c(-c3ccc(NC(=O)c4cn(CC(F)(F)F)cc(-c5ccc(F)cc5)c4=O)cc3)c2)cc1` [Example 35, N-{4-[2-Amino-5-(4-methylphenyl)pyridin-3-yl]phenyl}-5-(4-fluorophenyl)-4-oxo-1-(2,2,2-trifluoroethyl)-1,4-dihydropyridine-3-carboxamide], the IC50 in assay [1] fell in the range of 100 to 500 nM; in assay [2], 10 to 20 nM.
